In one test the test system is Pseudomonas aeruginosa. Put plainly: Anti-bacterial activity against Pseudomonas aeruginosa ATCC 27853 assessed as inhibition of bacterial growth. In kind it is functional. The conditions noted are these: Pseudomonas aeruginosa, ATCC 27853; read-out: MIC.
The subject of the next test is Candida albicans. Put plainly: Anti-fungal activity against Candida albicans 90023 assessed as inhibition of fungal growth. Type of test: functional.
The subject of test [1] is Escherichia coli. Put plainly: Antibiofilm activity against Escherichia coli ATCC 25922 assessed as clearance rate of mature biofilm at 8 times of MIC concentration relative to control. In kind it is functional.
For test [2], the system named is Acinetobacter baumannii. The experiment in a line: Antibiofilm activity against Acinetobacter baumannii assessed as reduction of self-aggregation. In kind it is functional, organism-based.
Test [3] concerns Escherichia coli. The experiment in a line: Reduction of biofilm virulent factors in Escherichia coli ATCC 25922 assessed as decrease in hydrophobicity index. In kind it is functional, organism-based.
Test [4] concerns Acinetobacter baumannii. Put plainly: Reduction of biofilm virulent factors in Acinetobacter baumannii assessed as decrease in extracellular polymeric substances (EPS) by measuring optical density at 490 nm at 1/4 times of MIC concentration by congo red binding assay (reference value: 0.188 to 0.192). Type of test: functional.
Test [5] has as its system Escherichia coli. The experiment in a line: Reduction of biofilm virulent factors in Escherichia coli ATCC 25922 assessed as decrease in extracellular polymeric substances (EPS) by measuring optical density at 490 nm at 2 times of MIC concentration by congo red binding assay (reference value: 0.028 to 0.031). In kind it is functional.
In test [6] the test system is Acinetobacter baumannii. Put plainly: Reduction in metabolic activity of Acinetobacter baumannii at 2 times of MIC concentration relative to control. In kind it is functional. Details: scale not given: the % may be the effect or the level left.

The values that follow come from ChEMBL document CHEMBL5505979, “Novel aminothiazoximone-corbelled ethoxycarbonylpyrimidones with antibiofilm activity to conquer Gram-negative bacteria through potential multitargeting effects” (Eur J Med Chem, 2024).

≈ marks a conversion by molar mass, not a printed value. Calls of active or inactive are those of the source. The rule behind the calls is not given here.

Take `CCCCc1nc(Cl)c(C2NC(=O)NC(CN3CCN(C(=O)/C(=N/OC)c4csc(N)n4)CC3)=C2C(=O)OCC)[nH]1` (stereo not drawn): the MIC with Pseudomonas aeruginosa was 26 µM (≈ 15.8 µg/mL); with Candida albicans it was 53 µM (≈ 32.2 µg/mL). In addition, the Activity is 37.9% with Escherichia coli [1], “Dose-Dependent Effect” in the test with Acinetobacter baumannii [2] and 66.3% in the test with Acinetobacter baumannii [6]. The outcome with Escherichia coli [3] was Active. The values for the OD with Acinetobacter baumannii [4] and with Escherichia coli [5] were 0.178 and 0.068, respectively.
